Measured values as given in the supplement of paper PMC10307832.

Columns and labels:
Test in all cases: relative viability (nuclei count vs DMSO), 5 days (fraction); higher = more cells survive
[1] = compound: CC[C@@H](C)CNCC(=O)N1CCC2=C([C@@H]1COC3=CC=CC(=C3)C)C=CS2 [RU-SKI 43] + N=C(N)NC(=N)NCCc1ccccc1 [Phenformin] (partner 250 µM)
Summary of the method: (§1)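 For relative viability, nuclei counts in treated wells were divided by those in vehicle wells. Lung cancer cell lines had been pin-tool dosed in 1536-well plates the day after seeding and cultured for 5 days, then fixed and stained in one step (final 0.05% Triton X-100, 1% formaldehyde, 1 ug/ml Hoechst) and imaged at 4×. Doses were one drug alone or a fixed anchor-drug dose plus five library-drug doses (not always all listed) in √10 steps, and values are duplicate-plate medians.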

[2] = compound: Cn1cc(-c2cnc3ccc4ccc(CS(=O)(=O)NCc5ccccn5)cc4c(=O)c3c2)cn1 [MK-8033] + N=C(N)NC(=N)NCCc1ccccc1 [Phenformin] (partner 250 µM)
Summary of the method: as §1

[3] = compound: Cn1cc(-c2cnc3ccc4ccc(CS(=O)(=O)NCc5ccccn5)cc4c(=O)c3c2)cn1 [MK-8033] + O=C(c1cc(Cc2n[nH]c(=O)c3ccccc23)ccc1F)N1CCN(C(=O)C2CC2)CC1 [Olaparib] (partner 8 µM)
Summary of the method: as §1

[4] = compound: CCc1c2c(nc3ccc(OC(=O)N4CCC(N5CCCCC5)CC4)cc13)-c1cc3c(c(=O)n1C2)COC(=O)[C@]3(O)CC [Irinotecan] + CS(=O)(=O)CCNCc1ccc(-c2ccc3ncnc(Nc4ccc(OCc5cccc(F)c5)c(Cl)c4)c3c2)o1 [Lapatinib] (partner 2 µM)
Summary of the method: as §1

Row | Cell Line | relative viability ([1]; first compound 0.1 µM) | relative viability ([1]; first compound 0.3162 µM) | relative viability ([1]; first compound 1 µM) | relative viability ([1]; first compound 3.162 µM) | relative viability ([1]; first compound 10 µM) | relative viability ([2]; first compound 0.02 µM) | relative viability ([2]; first compound 0.06325 µM) | relative viability ([2]; first compound 0.2 µM) | relative viability ([2]; first compound 0.6325 µM) | relative viability ([2]; first compound 2 µM) | relative viability ([3]; first compound 0.02 µM) | relative viability ([3]; first compound 0.06325 µM) | relative viability ([3]; first compound 0.2 µM) | relative viability ([3]; first compound 0.6325 µM) | relative viability ([3]; first compound 2 µM) | relative viability ([4]; first compound 0.6325 µM) | relative viability ([4]; first compound 2 µM) | relative viability ([4]; first compound 6.325 µM) | relative viability ([4]; first compound 20 µM)
1 | ChaGo-K-1 | 0.474 | 0.491 | 0.548 | 0.479 | 0.488 | 0.477 | 0.479 | 0.435 | 0.512 | 0.5 | 0.442 | 0.412 | 0.415 | 0.433 | 0.372 |  |  |  | 
2 | EBC-1 |  |  |  |  |  |  |  |  |  |  | 0.659 | 0.565 | 0.792 | 0.648 | 0.568 | 0.219 | 0.172 | 0.21 | 0.15
3 | IA-LM |  |  |  |  |  |  |  |  |  |  | 0.749 | 0.764 | 0.786 | 0.756 | 0.767 | 0.426 | 0.26 | 0.134 | 0.0941
4 | LCLC-103H | 0.318 | 0.388 | 0.435 | 0.346 | 0.343 | 0.378 | 0.334 | 0.314 | 0.355 | 0.396 | 0.731 | 0.778 | 0.737 | 0.729 | 0.815 |  |  |  | 
5 | NCI-H441 | 0.966 | 1.02 | 0.836 | 0.844 | 0.729 | 0.997 | 0.739 | 0.645 | 0.955 | 0.732 | 0.628 | 0.446 | 0.56 | 0.529 | 0.59 |  |  |  | 
6 | NCI-H522 | 0.663 | 0.746 | 0.749 | 0.647 | 0.684 | 0.645 | 0.7 | 0.707 | 0.54 | 0.699 | 0.544 | 0.491 | 0.607 | 0.685 | 0.632 |  |  |  | 
7 | NCI-H1299 |  |  |  |  |  |  |  |  |  |  | 1.01 | 0.967 | 0.927 | 1 | 0.982 | 0.721 | 0.693 | 0.399 | 0.203
8 | NCI-H1563 | 0.607 | 0.653 | 0.706 | 0.668 | 0.61 | 0.711 | 0.669 | 0.602 | 0.679 | 0.642 |  |  |  |  |  | 0.674 | 1.05 | 0.954 | 0.441
9 | NCI-H1623 | 0.629 | 0.564 | 0.619 | 0.583 | 0.53 | 0.578 | 0.538 | 0.618 | 0.507 | 0.619 |  |  |  |  |  |  |  |  | 
10 | NCI-H1648 |  |  |  |  |  |  |  |  |  |  | 0.841 |  | 0.748 | 0.765 | 0.574 |  |  |  | 
11 | NCI-H1703 |  |  |  |  |  |  |  |  |  |  | 0.385 | 0.304 | 0.524 | 0.336 | 0.598 | 0.953 | 1.32 | 0.39 | 0.158
12 | NCI-H2342 | 0.606 | 0.562 | 0.584 | 0.528 | 0.634 | 0.55 | 0.529 | 0.585 | 0.594 | 0.591 | 0.448 | 0.393 | 0.507 | 0.424 | 0.418 |  |  |  | 
13 | SW 900 | 0.626 | 0.64 | 0.785 | 0.687 | 0.611 | 0.466 | 0.649 | 0.603 | 0.591 | 0.499 | 0.851 | 0.876 | 0.852 | 0.788 | 0.812 |  |  |  | 
